Patent US7923041B2, “Compositions and methods for enhancing cognitive function” (Signum Biosciences, Inc., priority 2005, dated 2011)
pIC50: −log10 of the molar value. Where two headings read alike, the source gives them in different places.

Target: T1, PPME (Homo sapiens, UniProt Q9Y570)
T1 construct: made in house; host or cells: E. coli BL21(DE3)
T1 sequence (Q9Y570 1-386): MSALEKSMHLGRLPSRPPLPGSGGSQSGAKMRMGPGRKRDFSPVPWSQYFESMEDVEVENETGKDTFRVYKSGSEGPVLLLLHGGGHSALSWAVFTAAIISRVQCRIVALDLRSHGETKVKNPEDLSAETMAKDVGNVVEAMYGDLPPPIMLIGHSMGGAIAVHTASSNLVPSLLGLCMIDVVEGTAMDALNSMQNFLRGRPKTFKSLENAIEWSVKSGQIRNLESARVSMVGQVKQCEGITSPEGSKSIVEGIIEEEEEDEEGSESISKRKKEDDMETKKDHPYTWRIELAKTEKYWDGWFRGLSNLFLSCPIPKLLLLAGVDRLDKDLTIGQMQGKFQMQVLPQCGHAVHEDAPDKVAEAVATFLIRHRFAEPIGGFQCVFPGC
Experiment: PP2A methylesterase (PPME) inhibition, filter paper method
Assay type: biochemical
Description: This example provides a method by which the rate of demethylation of methyl PP2A can be determined. For the composition of ^3H-labeled methyl-PP2A, 100 μl reaction mixtures consisting of purified PP2A AC dimers (prepared as described in Example 3), purified PPMT (prepared as described in Example 1), 50 mM MOPS buffer pH 7.2, 5 mM DTT, 1 mM EDTA, 1 mg/ml BSA and 10 μl ^3H-SAM were incubated at 37° C. for 30 min and loaded onto a desalting column pre-equilibrated in 50 mM MOPS-Na pH 7.2, 1 mM DTT, 1 mM EDTA, 200 mM NaCl and 5% glycerol. The sample was eluted with the same buffer, 50 μl fractions were collected, and each aliquot analyzed by scintillation counting. Fractions containing ^3H-methyl PP2A were collected and stored at 4° C.
The following assay (see Lee, J. et al., Proc. Nat'l Acad. Sci. U.S.A. 93(12):[…] (1996)) is referred to subsequently as the “filter paper method”. The test compound was incubated with purified PPME (prepared as described in Example 2) and purified ^3H-methyl-labeled PP2A (the preparation of which is described in the preceding paragraph) in Buffer C (50 mM MOPS, 1 mM EDTA, 1 mM DTT buffer at pH 7.2, as in Example 3). After incubation at 37° C. for a fixed time (typically 10 minutes), the reaction mixture was spotted onto a 1 cm^2 piece of Whatman 3 mM filter paper. The filter paper was immediately dipped in 10% ice-cold TCA, and then kept on ice in a plastic tray. After all reactions were run, the filter papers were washed at 4° C. with stirring in a large excess of 10% TCA, similarly washed twice at 4° C. with 100% methanol, and then vacuum dried at 45° C. for 1 hr to remove the ^3H-methanol produced by PP2A demethylation. The dried filter papers then were assayed for radioactivity by submerging them in scintillation fluid and performing scintillation counting. This procedure is easily adapted to a 96-well format to allow high-throughput screening (described below).
As used herein to refer to assay results, the term “inhibition activity” refers to the following relationship: Inhibition activity=1−(amount of methyl-PP2A carboxyl demethylated with inhibitor)/(amount of methyl-PP2A carboxyl […] without inhibitor).

[1] = PPME at 85 nM, IC50 higher than the value tested, read-out: IC50

| pIC50 [1] | SMILES | further results |
| --- | --- | --- |
| < 2.00 | O=C(O)[C@]1(O)C[C@@H](O)[C@@H](O)[C@H](O)C1 [QA, D(−)-Quinic acid] | – |
| – | COc1cc(/C=C/C(=O)CC(=O)/C=C/c2ccc(O)c(OC)c2)ccc1O [CCM-L, Curcumin] | pIC50 (PPME at 85 nM, read-out: IC50): 3.11 |
| – | Cn1c(=O)c2c(ncn2C)n(C)c1=O [caffeine] | pIC50 (read-out: concentration required for 50% inhibition of PPME): < 3.36 |
| < 3.00 | O=C(/C=C/c1ccc(O)c(O)c1)O[C@@H]1C[C@](O)(C(=O)O)C[C@@H](O)[C@H]1O [CGA, Chlorogenic acid] | – |
| < 3.00 | O=C(O)/C=C/c1ccc(O)c(O)c1 [DHCA, 3,4-Dihdroxycinnamic acid] | – |
| – | Cc1c(C)c2c(c(C)c1O)CCC(C)(CCCC(C)CCCC(C)CCCC(C)C)O2 (racemic) [#12-1, DL-α-tocopherol] | pIC50 (PPME at 85 nM, read-out: IC50): 4.46 |

| SMILES | pIC50 [1] | further results |
| --- | --- | --- |
| COc1cc(C=CC(=O)O)ccc1O [HMCA, 4-Hydroxy-3-methoxycinnamic acid] | < 3.00 | – |
